The target of this assay is Bruton's Tyrosine Kinase (inactivated state) (Homo sapiens (Human), UniProt Q06187). In words: Bruton's Tyrosine Kinase (BTK) Inhibition TR-FRET (Time Resolved FRET) competition assay. The class given is binding. The following applies: BTK-Eu / Kinase Tracer 178 competition, incubated 18-24 h at 14° C. The method, then: Bruton's Tyrosine Kinase (BTK) Inhibition TR-FRET (Time Resolved FRET) Assay
This BTK competition assay measures compound potency (IC50) for the inactivated state of Bruton's Tyrosine Kinase using FRET (Forster/Fluorescence Resonance Energy Transfer) technology. The BTK-Eu complex was incubated on ice one hour prior to use at a starting concentration of 50 nM BTK-Bioease™: 10 nM Eu-streptavidin (Perkin-Elmer Catalog #AD0062). The assay buffer consisted of 20 mM HEPES (pH 7.15), 0.1 mM DTT, 10 mM MgCl2, 0.5 mg/ml BSA with 3% Kinase Stabilizer (Fremont Biosolutions, Catalog #STB-K02). After 1 h, the reaction mixture from above was diluted 10 fold in assay buffer to make 5 nM BTK: 1 nM Eu-Streptavidin complex (donor fluorophore). 18 μl of a mixture of 0.11 nM BTK-Eu and 0.11 nM Kinase Tracer 178 (Invitrogen, Catalog #PV5593,) with BTK-Eu alone as no negative control, was then dispensed into 384-well flat bottom plates (Greiner, 784076). Compounds to be tested in assay were prepared as 10× concentrations and serial dilution in half-log increments was performed in DMSO so as to generate 10 point curves. To initiate the FRET reaction, compounds prepared as 10× stock in DMSO was added to the plates and the plates were incubated 18-24 h at 14° C.
After the incubation the plates were read on a BMG Pherastar Fluorescent plate reader (or equivalent) and used to measure the emission energy from the europium donor fluorophore (620 nm emission) and the FRET (665 nm emission). The negative control well values were averaged to obtain the mean minimum. The positive “no inhibitor” control wells were averaged to obtain the mean maximum. Percent of maximal FRET was calculated using following equation: % max FRET=100×[(FSRcmpd−FSRmean min)/(FSRmean max−FSRmean min)]
where FSR=FRET Signal ratio. % Max FRET curves were plotted in Activity Base (Excel) and the IC50(%), hill slope, z′ and % CV were determined. The mean IC50 and standard deviation will be derived from duplicate curves (singlet inhibition curves from two independent dilutions) using Microsoft Excel.
Representative compound data for this assay are listed below in Table II.
In general terms: Time-resolved FRET reads energy transfer from a long-lived donor to a nearby acceptor.

For ten compounds, IC50 results are on record in patent publication US9458105B2, “Inhibitors of Bruton's tyrosine kinase” (Hoffmann-La Roche Inc., priority 2012, dated 2016).

Molecules are shown by their SMILES. A value given as a limit tells only on which side of the number the result lay.

Chain of Bruton's Tyrosine Kinase (inactivated state) (Q06187 whole entry): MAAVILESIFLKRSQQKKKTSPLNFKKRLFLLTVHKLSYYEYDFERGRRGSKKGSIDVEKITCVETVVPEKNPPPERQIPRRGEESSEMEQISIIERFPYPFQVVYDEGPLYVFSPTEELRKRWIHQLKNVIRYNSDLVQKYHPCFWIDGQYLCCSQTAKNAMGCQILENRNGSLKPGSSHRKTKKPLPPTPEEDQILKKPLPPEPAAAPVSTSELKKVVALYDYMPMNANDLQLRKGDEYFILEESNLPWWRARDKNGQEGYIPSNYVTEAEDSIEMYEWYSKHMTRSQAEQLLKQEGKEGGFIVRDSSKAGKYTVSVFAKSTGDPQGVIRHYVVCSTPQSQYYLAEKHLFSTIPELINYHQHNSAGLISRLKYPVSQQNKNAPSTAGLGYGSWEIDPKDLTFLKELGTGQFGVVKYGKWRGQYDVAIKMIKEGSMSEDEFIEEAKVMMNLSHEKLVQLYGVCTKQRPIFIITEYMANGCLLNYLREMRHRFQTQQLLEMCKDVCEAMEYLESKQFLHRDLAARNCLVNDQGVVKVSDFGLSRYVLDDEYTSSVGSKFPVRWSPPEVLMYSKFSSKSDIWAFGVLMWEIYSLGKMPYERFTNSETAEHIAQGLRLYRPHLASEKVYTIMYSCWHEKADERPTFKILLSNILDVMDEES

`Cc1c(NC(=O)c2ccc(C(C)(C)C)cc2)cccc1-c1cc[nH]c(=O)c1` [Compound I-7, 4-tert-Butyl-N-[2-methyl-3-(2-oxo-1,2-dihydro-pyridin-4-yl)-phenyl]-benzamide]: the IC50 is 6.91 µM.

The compound `CC(C)(C)c1cc(F)c2c(=O)n(Cc3ccc(-c4cc[nH]c(=O)c4)cc3)ncc2c1` [Compound I-1, 6-tert-Butyl-8-fluoro-2-[4-(2-oxo-1,2-dihydro-pyridin-4-yl)-benzyl]-2H-phthalazin-1-one] displayed an IC50 of 3.32 µM.

On to `CC(C)(C)c1cc(F)c2c(=O)n(Cc3ccc(-c4cc[nH]c(=O)c4)c(CO)c3)ncc2c1` [Compound I-8, 6-tert-Butyl-8-fluoro-2-[3-hydroxymethyl-4-(2-oxo-1,2-dihydro-pyridin-4-yl)-benzyl]-2H-phthalazin-1-one], for which the IC50 is > 100 µM.

In turn, `CC(C)(C)c1cc(F)c2c(=O)n(Cc3c(F)cc(-c4cc[nH]c(=O)c4)cc3F)ncc2c1` [Compound I-4, 6-tert-Butyl-2-[2,6-difluoro-4-(2-oxo-1,2-dihydro-pyridin-4-yl)-benzyl]-8-fluoro-2H-phthalazin-1-one] returned an IC50 of 13.3 µM.

Regarding `CC(C)(C)c1cc(F)c2c(=O)n(Cc3ccc(-c4cc[nH]c(=O)c4)cc3CO)ncc2c1` [Compound I-5, 6-tert-Butyl-8-fluoro-2-[2-hydroxymethyl-4-(2-oxo-1,2-dihydro-pyridin-4-yl)-benzyl]-2H-phthalazin-1-one], the IC50 was found to be 3.14 µM.

Regarding `CC(C)(C)c1cc(F)c2c(=O)n(Cc3ccc(-c4cc[nH]c(=O)c4)cc3F)ncc2c1` [Compound I-2, 6-tert-Butyl-8-fluoro-2-[2-fluoro-4-(2-oxo-1,2-dihydro-pyridin-4-yl)-benzyl]-2H-phthalazin-1-one], the IC50 stood at 0.983 µM.

`CC(C)(C)c1cc(F)c2c(=O)n(Cc3cc(CO)c(-c4cc[nH]c(=O)c4)cc3F)ncc2c1` [Compound I-9, 6-tert-Butyl-8-fluoro-2-[2-fluoro-5-hydroxymethyl-4-(2-oxo-1,2-dihydro-pyridin-4-yl)-benzyl]-2H-phthalazin-1-one]: the IC50 was determined as 52.3 µM.

For the compound `Cn1cc(-c2cc(-c3ccc(Cn4ncc5cc(C(C)(C)C)cc(F)c5c4=O)c(F)c3)cc(=O)[nH]2)cn1` [Compound I-6, 6-tert-Butyl-8-fluoro-2-{2-fluoro-4-[6-(1-methyl-1H-pyrazol-4-yl)-2-oxo-1,2-dihydro-pyridin-4-yl]-benzyl}-2H-phthalazin-1-one], the IC50 was 0.0142 µM.

As for `CC(C)(C)c1cc(F)c2c(=O)n(-c3cccc(-c4cc[nH]c(=O)c4)c3CO)ncc2c1` [Compound I-3, 6-tert-Butyl-8-fluoro-2-[2-hydroxymethyl-3-(2-oxo-1,2-dihydro-pyridin-4-yl)-phenyl]-2H-phthalazin-1-one], the IC50 came to 0.366 µM.

As to `Cn1cc(-c2cc(-c3ccc(CN4Cc5cc(C(C)(C)C)sc5C4=O)c(F)c3)cc(=O)[nH]2)cn1` [Compound I-10, 2-tert-Butyl-5-{2-fluoro-4-[6-(1-methyl-1H-pyrazol-4-yl)-2-oxo-1,2-dihydro-pyridin-4-yl]-benzyl}-4,5-dihydro-thieno[2,3-c]pyrrol-6-one], the IC50 was found to be 0.00711 µM.

By IC50 is commonly meant the concentration that inhibits the measured activity by half.
